Assay results published in patent US20120028970A1, “HETEROARYLTHIOMETHYL PYRIDINE DERIVATIVE” (MSD K.K., priority 2009, published 2012).

How the values were obtained:
human NPY Y1 receptor = target: T1, human NPY Y1 receptor (Homo sapiens, UniProt P25929); test: NPY binding inhibition test ([125I] peptide YY binding to membranes of NPY Y1 receptor expressing CHO-K1 cells); conditions: membrane of CHO-K1 cells expressing human NPY Y1 receptor, 25° C., 2 hours; read-out: IC50 against specific [125I] peptide YY binding
T1 construct: expressed in transfected cells; host or cells: CHO-K1 NFAT β-Lactamase (Aurora)
T1 sequence (P25929 1-384): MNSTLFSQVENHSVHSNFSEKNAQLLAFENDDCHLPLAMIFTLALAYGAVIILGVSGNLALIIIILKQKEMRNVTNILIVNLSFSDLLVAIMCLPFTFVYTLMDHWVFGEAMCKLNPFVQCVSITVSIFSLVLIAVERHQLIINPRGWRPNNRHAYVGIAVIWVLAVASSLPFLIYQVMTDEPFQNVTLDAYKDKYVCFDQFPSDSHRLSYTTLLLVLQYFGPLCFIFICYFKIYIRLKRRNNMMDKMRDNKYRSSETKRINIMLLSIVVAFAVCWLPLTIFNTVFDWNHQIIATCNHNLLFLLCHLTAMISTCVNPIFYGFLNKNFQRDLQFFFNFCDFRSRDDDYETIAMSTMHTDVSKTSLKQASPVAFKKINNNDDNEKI
From the text: A cDNA sequence encoding a human NPY Y1 receptor (Accession No. L07615) was cloned into expression vectors pEF1x (made by Invitrogen Inc.).

human P-glycoprotein = target: T2, human P-glycoprotein (Homo sapiens, UniProt P08183); test: Assay on P-glycoprotein substrate specificity (transcellular transport, LLC-PK1 cells expressing human P-glycoprotein); format: in vitro ADME; conditions: for efflux ratio at 3 h, 1 μM: pH 7.4, 1 μM test compound, human P-gp expressing LLC-PK1 cells, read-out: BA/AB (ratio of permeability coefficients Papp B to A / A to B)
T2 construct: host or cells: porcine kidney-derived LLC-PK1 cells
Description: P-glycoprotein (P-gp) substrate specificities were assessed in a transcellular transport assay system using cells expressing human P-glycoprotein. The human P-glycoprotein expression cells employing porcine kidney-derived LLC-PK1 cells as host cells were obtained from Dr. Alfred Schinkel in the Netherlands Cancer Institute [see Journal of Clinical Investigation, vol. 96, p. […] The cells were seeded on a filter membrane of 24-well HTS multiwell insert system (manufactured by Beckton Dickinson) to have a concentration of 0.15 million cells/well. The cells were cultured for about 1 week to form a single layer film by the cells. The multiwell insert system is divided into two compartments (the apical membrane side compartment and the basolateral membrane side compartment). Prior to the transport experiment, cell culture media on both sides (apical and basolateral sides) were replaced by Hank's balanced salt solution (HBSS) containing an assay buffer solution (10 mM Hepes (pH 7.4)). After about 1 hour, the basolateral and apical solutions were replaced by an assay buffer solution (0.5 mL) and a 1 μM test compound-containing assay buffer solution (0.5 mL), respectively, and the transport experiment was started for transportation from Apical to Basolateral (from A to B). After 3 hours, each 50 μL was collected as a measuring sample from both of the apical and basolateral sides. The reverse operation thereof was carried out for transportation from Basolateral to Apical (from B to A). […] After termination of the transport experiment, an equal amount of acetonitrile containing the internal standard was added to each measuring sample. The measuring samples were measured using LC-MS/MS to calculate the concentrations of the test compounds by a relative calibration curve method. The permeability coefficients of the test compounds transported in each of from A to B and from B to A were calculated (Papp: Expression 1). The ratios of the permeability coefficients between A to B and B to A were also determined (BA/AB: Expression 2). BA/AB was considered to be an index of P-glycoprotein (p-gp) substrate specificity [see Drug Metabolism and Disposition, vol. 31, p.
Papp=(0.5 mL×CR)/((CD+CR)×3 hr×Area) Expression 1
BA/AB=Papp(B to A)/Paap(A to B) Expression 2
Area: surface area of filter; CD: concentration of test compound in donor side after 3 hours; CR: concentration of test compound in receiver side after 3 hours

T2 sequence (P08183 whole entry): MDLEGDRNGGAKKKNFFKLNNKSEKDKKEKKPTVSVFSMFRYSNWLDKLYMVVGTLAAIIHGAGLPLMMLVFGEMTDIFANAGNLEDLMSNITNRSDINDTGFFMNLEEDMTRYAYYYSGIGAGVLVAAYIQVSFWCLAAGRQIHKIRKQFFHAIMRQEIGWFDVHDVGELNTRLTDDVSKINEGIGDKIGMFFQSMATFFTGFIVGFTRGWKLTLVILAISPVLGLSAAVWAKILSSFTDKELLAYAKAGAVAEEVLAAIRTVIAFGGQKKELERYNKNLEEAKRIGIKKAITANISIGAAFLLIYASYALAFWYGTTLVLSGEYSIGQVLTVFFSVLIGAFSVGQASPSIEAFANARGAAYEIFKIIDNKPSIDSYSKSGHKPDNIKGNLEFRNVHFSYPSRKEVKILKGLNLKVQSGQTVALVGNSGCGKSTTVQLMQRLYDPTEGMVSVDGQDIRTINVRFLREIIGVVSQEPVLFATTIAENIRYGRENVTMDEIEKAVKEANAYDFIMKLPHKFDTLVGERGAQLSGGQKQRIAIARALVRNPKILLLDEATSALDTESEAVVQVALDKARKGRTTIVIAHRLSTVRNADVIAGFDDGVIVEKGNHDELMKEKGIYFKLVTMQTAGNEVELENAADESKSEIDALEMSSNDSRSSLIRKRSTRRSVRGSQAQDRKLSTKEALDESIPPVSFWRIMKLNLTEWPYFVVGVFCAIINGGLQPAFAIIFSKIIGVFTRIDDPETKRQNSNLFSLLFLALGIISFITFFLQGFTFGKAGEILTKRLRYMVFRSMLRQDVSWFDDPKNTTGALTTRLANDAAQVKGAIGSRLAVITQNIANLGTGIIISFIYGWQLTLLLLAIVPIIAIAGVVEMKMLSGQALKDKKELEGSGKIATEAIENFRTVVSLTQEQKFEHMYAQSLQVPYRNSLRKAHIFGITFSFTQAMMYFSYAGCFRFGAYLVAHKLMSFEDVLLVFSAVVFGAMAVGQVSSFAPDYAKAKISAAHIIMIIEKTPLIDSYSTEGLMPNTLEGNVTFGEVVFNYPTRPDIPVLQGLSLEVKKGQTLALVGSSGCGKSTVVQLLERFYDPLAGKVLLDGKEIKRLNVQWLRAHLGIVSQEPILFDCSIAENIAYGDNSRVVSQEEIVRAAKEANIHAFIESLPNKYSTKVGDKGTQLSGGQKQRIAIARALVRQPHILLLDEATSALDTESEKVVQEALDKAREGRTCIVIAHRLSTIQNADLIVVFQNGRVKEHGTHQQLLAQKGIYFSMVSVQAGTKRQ

Structure (SMILES) | IC50 (human NPY Y1 receptor) | efflux ratio at 3 h, 1 μM (human P-glycoprotein) | human P-glycoprotein substrate specificity (in words) (human P-glycoprotein)
C=CCOC(=O)Nc1cccc(CNc2cc(C3CCOCC3)cc(CSc3nnc(CC)s3)n2)c1 [Compound (A), reference compound] | 0.33 nM | 5 | –
Cc1nc(SCc2cc(N3CCSCC3)cc(NCc3cccc(F)n3)n2)oc1C [Example 1, 6-{[(4,5-dimethyl-1,3-oxazol-2-yl)sulfanyl]methyl}-N-[(6-fluoropyridin-2-yl)methyl]-4-(thiomorpholin-4-yl)pyridin-2-amine] | 0.27 nM | 1.9 | notably low human P-glycoprotein substrate specificity
Cc1cccc(CNc2cc(N3CCSCC3)cc(CSc3nc(C)c(C)s3)n2)n1 [Example 2, 6-{[(4,5-dimethyl-1,3-thiazol-2-yl)sulfanyl]methyl}-N-[(6-methylpyridin-2-yl)methyl]-4-(thiomorpholin-4-yl)pyridin-2-amine] | 0.17 nM | – | –
CCc1sc(SCc2cc(N3CCC(F)CC3)cc(NCc3cccc(C)n3)n2)nc1C [Example 3, 6-{[(5-ethyl-4-methyl-1,3-thiazol-2-yl)sulfanyl]methyl}-4-(4-fluoropiperidin-1-yl)-N-[(6-methylpyridin-2-yl)methyl]pyridin-2-amine] | 0.26 nM | – | –
C=CCNc1cc(N2[C@@H]3CC[C@H]2C[C@H](F)C3)cc(CSc2nc(C)c(CC)s2)n1 [Example 4, 6-{[(5-ethyl-4-methyl-1,3-thiazol-2-yl)sulfanyl]methyl}-4-[(3-exo)-3-fluoro-8-azabicyclo[3,2,1]octo-8-yl]-N-(prop-2-en-1-yl)pyridin-2-amine] | 0.27 nM | – | –
Cc1cccc(CNc2cc(N3C4CCC3CC(F)(F)C4)cc(CSc3cc(C)n(C)n3)n2)n1 [Example 5, 4-(3,3-difluoro-8-azabicyclo[3,2,1]octo-8-yl)-6-{[(1,5-dimethyl-1H-pyrazol-3-yl)sulfanyl]methyl}-N-[(6-methylpyridin-2-yl)methyl]pyridin-2-amine] | 0.24 nM | – | –
C=CCNc1cc(N2CCC(F)(F)CC2)cc(CSc2cc(CC)n(C)n2)n1 [Example 6, 4-(4,4-difluoropiperidin-1-yl)-6-{[(5-ethyl-1-methyl-1H-pyrazol-3-yl)sulfanyl]methyl}-N-(prop-2-en-1-yl)pyridin-2-amine] | 0.28 nM | – | –
CCCCNc1cc(N2CCC(F)(F)CC2)cc(CSc2nn(C)c(CC)c2C)n1 [Example 7, N-butyl-4-(4,4-difluoropiperidin-1-yl)-6-{[(5-ethyl-1,4-dimethyl-1H-pyrazol-3-yl)sulfanyl]methyl}pyridin-2-amine] | 0.27 nM | – | –
CCc1c(C)c(SCc2cc(N3CCC(F)(F)CC3)cc(NCCOC)n2)nn1C [Example 8, 4-(4,4-difluoropiperidin-1-yl)-6-{[(5-ethyl-1,4-dimethyl-1H-pyrazol-3-yl)sulfanyl]methyl}-N-(2-methoxyethyl)pyridin-2-amine] | 0.27 nM | – | –
Cc1cccc(CNc2cc(N3CCOCC3)cc(CSc3nc(CF)c(C)s3)n2)n1 [Example 9, 6-({[4-(fluoromethyl)-5-methyl-1,3-thiazol-2-yl]sulfanyl}methyl)-N-[(6-methylpyridin-2-yl)methyl]-4-(morpholin-4-yl)pyridin-2-amine] | 0.2 nM | 1.8 | notably low human P-glycoprotein substrate specificity
CCc1sc(SCc2cc(N3CCOCC3)cc(NCc3cccc(C)n3)n2)nc1CF [Example 10, 6-({[5-ethyl-4-(fluoromethyl)-1,3-thiazol-2-yl]sulfanyl}methyl)-N-[(6-methylpyridin-2-yl)methyl]-4-(morpholin-4-yl)pyridin-2-amine] | 0.13 nM | – | –
Cc1cccc(CNc2cc(N3CCOCC3)cc(CSc3nc(CF)c(C4CC4)s3)n2)n1 [Example 11, 6-({[5-cyclopropyl-4-(fluoromethyl)-1,3-thiazol-2-yl]sulfanyl}methyl)-N-[(6-methylpyridin-2-yl)methyl]-4-(morpholin-4-yl)pyridin-2-amine] | 0.19 nM | – | –
